# Reference: the NIST ThermoML archive (doi:10.1016/j.jct.2019.01.025)
# ± gives the expanded uncertainty stated by the source.
# Conditions: 101.33 kPa, Liquid, Vibrating tube method
Structure (SMILES),mass density (298.15 K),mass density (303.15 K),mass density (308.15 K),mass density (313.15 K),mass density (318.15 K),mass density (323.15 K),mass density (293.15 K)
CC(C)(C)O [2-methylpropan-2-ol],780.61 ± 4 kg/m3,775.42 ± 4 kg/m3,770.21 ± 4 kg/m3,764.92 ± 4 kg/m3,759.42 ± 4 kg/m3,753.95 ± 4 kg/m3,
CCCO [propan-1-ol],799.69 ± 4 kg/m3,795.58 ± 4 kg/m3,791.52 ± 4 kg/m3,787.42 ± 4 kg/m3,783.17 ± 4 kg/m3,778.96 ± 4 kg/m3,803.77 ± 4 kg/m3
CCCCO [butan-1-ol],805.92 ± 4 kg/m3,802 ± 4 kg/m3,798.14 ± 4 kg/m3,794.24 ± 4 kg/m3,790.2 ± 4 kg/m3,786.21 ± 4 kg/m3,809.77 ± 4 kg/m3
NCCO [2-aminoethan-1-ol],1012.53 ± 4 kg/m3,1008.47 ± 4 kg/m3,1004.49 ± 4 kg/m3,1000.5 ± 4 kg/m3,996.39 ± 4 kg/m3,992.41 ± 4 kg/m3,1016.47 ± 4 kg/m3
CCO [ethanol],785.13 ± 4 kg/m3,780.75 ± 4 kg/m3,776.41 ± 4 kg/m3,772.04 ± 4 kg/m3,767.52 ± 4 kg/m3,763.04 ± 4 kg/m3,789.4 ± 4 kg/m3
CC(C)CO [2-methyl-1-propanol],797.99 ± 4 kg/m3,794.03 ± 4 kg/m3,790.09 ± 4 kg/m3,786.12 ± 4 kg/m3,781.97 ± 4 kg/m3,777.86 ± 4 kg/m3,801.85 ± 4 kg/m3
